Laboratory results published in patent EP0302626A2, “Insecticidal compounds” (IMPERIAL CHEMICAL INDUSTRIES PLC, priority 1987, dated 1989).
Values joined by “and” are separate entries in the source; they are usually repeats but may differ in a detail not shown here. Identical values can stand only once. Like-named read-outs stand apart in the source and are kept apart here. Marks after values point to notes of the source that are not given here.

Columns and labels:
Assay type in all cases: in vivo
[1] = system: Tetranychus urticae (spider mites - adult); assay: insecticidal mortality test, contact, French bean leaf; conditions: Tetranychus urticae, 72 h; for mortality at 100 ppm: read-out: grading of mortality, Tua, 100 ppm, 3 days
Procedure: (§1) The activity of the Product was determined using a variety of insect pests. The Product was used in the form of liquid preparations containing 500, 250 or 100 parts per million (ppm) by weight of the Product. The preparations were made by dissolving the Product in acetone and diluting the solutions with water containing 0.01% by weight of a wetting agent sold under the trade name "LlSSAPOL" NX until the liquid preparations contained the required concentration of the Product. "Lissapol" is a Registered Trade Mark.
(§2) The test procedure adopted with regard to each pest was basically the same and comprised supporting a number of the pests on a medium which was usually a host plant or a foodstuff on which the pests feed, and treating either or both the pests and the medium with the preparations. The mortality of the pests was then assessed at periods usually varying from one to three days after the treatment.
(§3) The results of the tests are given in Table III for each of the Products, at the rate in parts per million given in the second column as a grading of mortality designated as A, B or C wherein A indicates 80-100% mortality, B indicates 50-79% mortality and C indicates less than 50% mortality.
(§4) In Table 111 the pest organism used is designated by a letter code and the pests species, the support medium or food, and the type and duration of test is given in Table II.

Myzus persicae (aphids) = assay: insecticidal mortality test, contact, Chinese Cabbage leaf; conditions: 72 h, read-out: grading of mortality, MP
Procedure: as §1, §2, §3, §4

[2] = system: Nephotettix cincticeps (green leaf hopper - nymphs); assay: insecticidal mortality test, contact, rice plant; conditions: 48 h, 100 ppm, contact, rice plant, test duration of 2 days (footnote +), read-out: grading of mortality, NC
Procedure: as §1, §2, §3, §4

[3] = system: Heliothis virescens (tobacco budworm - larvae); assay: insecticidal mortality test, residual, cotton leaf; conditions: residual, cotton leaf, read-out: grading of mortality, HV; for mortality at 100 ppm: 48 h, test duration of 2 days (footnote +)
Procedure: as §1, §2, §3, §4

[4] = system: Spodoptera exigua (lesser army worm - larvae); assay: insecticidal mortality test, residual, cotton leaf; conditions: 48 h, read-out: grading of mortality, SP
Procedure: as §1, §2, §3, §4

[5] = system: Diabrotica balteata (rootworm larvae); assay: insecticidal mortality test, residual, filter paper/maize seed; conditions: read-out: grading of mortality, DB; for mortality at 100 ppm: 48 h
Procedure: as §1, §2, §3, §4

[6] = system: Blattella germanica (cockroach nymphs); assay: insecticidal mortality test, residual, plastic pot; conditions: 72 h, read-out: grading of mortality, BG
Procedure: as §1, §2, §3, §4

[7] = system: Musca domestica (houseflies - adults); assay: insecticidal mortality test, contact, cotton wool/sugar; conditions: read-out: grading of mortality, MD; for mortality at 100 ppm: 72 h
Procedure: as §1, §2, §3, §4

[8] = system: Blattella germanica (adult males); assay: Blattella germanica knockdown test; conditions: for % MORTALITY 48 hrs / mortality at 250 ppm: insects held at 25°C and 65% relative humidity for 48 hours; for % MORTALITY 48 hrs / pest or weed control at 250 ppm / % KNOCKDOWN OBSERVED 15 min / % KNOCKDOWN OBSERVED 20 min / mortality at 250 ppm: tests 1 and 2 are repeats; for % MORTALITY 48 hrs: 2880 min; for KT₅₀: time taken to knockdown 50% of test insects; for KT₅₀ / KT₉₀: Tetramethrin: mean of 3 assessments; for KT₉₀: time taken to knockdown 90% of test insects; for pest or weed control at 250 ppm / mortality at 250 ppm: Blattella germanica; for pest or weed control at 250 ppm: topical, Tetramethrin: mean of 27 observations; for pest or weed control at 250 ppm / % KNOCKDOWN OBSERVED 15 min / % KNOCKDOWN OBSERVED 20 min: 250 ppm in kerosene, 1 cm3 sprayed onto 10 adult males; for mortality at 250 ppm: 48 h
Procedure: The test compound was dissolved in acetone (2 cm³) and the solution diluted to a concentration of 250 ppm with kerosene. 1 cm³ Of this preparation was sprayed onto 10 Blattella germanica (adult males) held in a netted plastic pot in a Burkhard potter Tower. Assessment of knockdown was performed at intervals of 5 minutes up to a total of 20 minutes. On removal from the Burkhard Potter Tower, the insects were held at 25°C and 65% relative humidity for 48 hours, and an assessment of mortality performed. Each test was repeated.
In some tests, additional knockdown assessment was performed at intervals of 1, 2, 3 and 4 minutes, and KT₅₀ and KT₉₀ values determined (the time taken, in minutes, to knockdown 50% and 90% respectively of test insects).

[9] = system: Musca domestica (adult females); assay: Musca domestica knockdown test; conditions: 1 cm3 of 30 ppm solution in acetone, Kearns and March chamber, 20 adult females, observed over 10 minutes; average of 2 replicates (* single replicate, ** average of 7 tests)
Procedure: 1 cm³ Of a 30 ppm solution of the test chemical in acetone was sprayed into a Kearns and March chamber containing 20 Musca domestica (adult females). Knockdown was observed over a period of 10 minutes and KT₅₀ and KT₉₀ values (the time taken for 50% and 90% of the insects to be knocked down) were calculated from the observations. The results given in Table V represent average KT values of 2 replicates except where otherwise stated.

[10] = 5 min, 5 min, read-out: % KNOCKDOWN OBSERVED 5 min
[11] = 10 min, 10 min, read-out: % KNOCKDOWN OBSERVED 10 min
[12] = 250 ppm spray, read-out: % MORTALITY 48 hrs

Row | Compound | mortality at 100 ppm [1] [%] | mortality at 100 ppm (Myzus persicae (aphids)) [%] | mortality at 100 ppm [2] [%] | mortality at 100 ppm [3] [%] | mortality at 100 ppm [4] [%] | mortality at 100 ppm [5] [%] | mortality at 100 ppm [6] [%] | mortality at 100 ppm [7] [%] | % MORTALITY 48 hrs ([8]; 250 ppm spray) | KT₅₀ ([8]; 250 ppm spray) | KT₉₀ ([8]; 250 ppm spray) | pest or weed control at 250 ppm [8, 10] [%] | pest or weed control at 250 ppm [8, 11] [%] | % KNOCKDOWN OBSERVED 15 min [8] [%] | % KNOCKDOWN OBSERVED 20 min [8] [%] | mortality at 250 ppm [8, 12] [%] | other results
1 | CC1(C)C(C=C(Cl)C(F)(F)F)C1C(=O)OCc1c(F)c(F)c(CCC#N)c(F)c1F (racemic) [Product XXI, 4-(2-cyanoethyl)-2,3,5,6-tetrafluorobenzyl (1RS, cis)-3-(Z-2-chloro-3,3,3-trifluoroprop-1-en-1-yl)-2,2-dimethylcyclopropanecarboxylate] | < 50 | 80 to 100 | 80 to 100 | 80 to 100 | < 50 | < 50 | < 50 | < 50 | 60% and 100% | 4.2 min and 3.6 min | 8.8 min and 8.2 min | 60 | 100 |  |  |  | 
2 | CC(C)=NOCc1c(F)c(F)c(COC(=O)[C@@H]2[C@@H](/C=C(\Cl)C(F)(F)F)C2(C)C)c(F)c1F (racemic) [Product XXIII, 4-[(prop-2-ylidenamino)oxymethyl]-2,3,5,6-tetrafluorobenzyl (1RS, trans)-3-(Z-2-chloro-3,3,3-trifluoroprop-1-en-1-yl)-2,2-dimethylcyclopropanecarboxylate] | 80 to 100 | 80 to 100 | 80 to 100 | < 50 | 80 to 100 | 80 to 100 | < 50 | < 50 |  |  | 9.3 min |  |  | 10 | 10 | 100 | 
3 | CC(C)=CC1C(C(=O)OCN2C(=O)C3=C(CCCC3)C2=O)C1(C)C (centres unmarked) [Tetramethrin, reference compound] |  |  |  |  |  |  |  |  |  | 1.7** mins | 3.2** mins | 80 | 100 |  |  |  | mortality at 250 ppm ([8]; read-out: % MORTALITY 48 hrs, 250 ppm spray): 50%; KT₅₀ [9]: 4.0** mins; KT₉₀ [9]: 7.5** mins
4 | C#CCN(C)Cc1c(F)c(F)c(COC(=O)[C@@H]2[C@H](/C=C(\Cl)C(F)(F)F)C2(C)C)c(F)c1F (racemic) [Product XXIV, 4-[(N-(prop-2-yn-1-yl)-N-methyl)aminomethyl]-2,3,5-6-tetrafluorobenzyl (1RS, cis)-3-(Z-2-chloro-3,3,3-trifluoroprop-1-en-1-yl)-2,2-dimethylcyclopropanecarboxylate] | 50 to 79 | 80 to 100 | 80 to 100 | 80 to 100 | 80 to 100 | 80 to 100 | 50 to 79 | 80 to 100 | 100% and 70% | 4.2 min and 5.0 min | 8.8 min and 9.0 min | 60 | 100 |  |  |  | 
5 | CC(=O)SCc1c(F)c(F)c(COC(=O)[C@@H]2[C@@H](/C=C(\Cl)C(F)(F)F)C2(C)C)c(F)c1F (racemic) [Product XXVII, 4-(acetylthiomethyl)-2,3,5,6-tetrafluorobenzyl (1RS, trans)-3-(Z-2-chloro-3,3,3-trifluoroprop-1-en-1-yl)-2,2-dimethylcyclopropanecarboxylate] | 80 to 100 | 80 to 100 | 80 to 100 | 80 to 100 | 80 to 100 | 80 to 100 | < 50 | 80 to 100 | 80% |  |  |  |  | 40 | 40 | 100 | 
6 | CC(C)=NOCc1c(F)c(F)c(COC(=O)C2C(C=C(Cl)C(F)(F)F)C2(C)C)c(F)c1F (racemic) [Product XXII, 4-[(prop-2-ylideneamino)oxymethyl]-2,3,5,6-tetrafluorobenzyl (1RS, cis)-3-(Z-2-chloro-3,3,3-trifluoroprop-1-en-1-yl-2,2-dimethylcyclopropanecarboxylate] | 80 to 100 | 80 to 100 | 80 to 100 | 80 to 100 | 80 to 100 | 80 to 100 | < 50 | 80 to 100 |  | 3.6 min and 2.5 min | 8.3 min and 4.5 min |  | 100 |  |  | 100 | 
7 | CC=NNc1c(F)c(F)c(COC(=O)C2C(C=C(Cl)C(F)(F)F)C2(C)C)c(F)c1F (stereo not drawn) [Product XIV, E/Z-4-(ethylidenehydrazino)-2,3,5,6-tetrafluorobenzyl (1RS, cis)-3-(Z-2-chloro-3,3,3-trifluoroprop-1-en-1-yl)-2,2-dimethylcyclopropanecarboxylate] |  |  |  |  |  |  |  |  | 50% and 90% |  |  |  |  | 100 |  |  | mortality at 500 ppm ([1]; read-out: grading of mortality, Tua, 500 ppm, 3 days): < 50%; mortality at 500 ppm (Myzus persicae (aphids)): 80 to 100%; mortality at 500 ppm ([3]; 72 h, 500 ppm, 3 days): 80 to 100%; mortality at 500 ppm ([5]; 72 h): 80 to 100%; mortality at 500 ppm [6]: 80 to 100%; mortality at 500 ppm ([7]; 24 h): 80 to 100%; KT₅₀ [9]: 6.6 min; KT₉₀ [9]: 9.4 min
8 | CC1(C)C(/C=C(\F)C(F)(F)F)C1C(=O)OCc1c(F)c(F)c(CN=[N+]=[N-])c(F)c1F (mixture of isomers) [Product XXVIII, 4-(azidomethyl)-2,3,5,6-tetrafluorobenzyl (1RS, cis/trans)-3-(Z-2,3,3,3-tetrafluoroprop-1-en-1-yl)2,2-dimethylcyclopropanecarboxylate] | < 50 | 80 to 100 | 80 to 100 | 80 to 100 | 80 to 100 | 80 to 100 | 80 to 100 | 80 to 100 |  | 6.4 min and 12.6 min | 9.3 min and 18.3 min |  |  | 70 | 100 | 100 | 
